Laboratory results as given in patent US20080021026A1, “BENZOTHIOPHENE INHIBITORS OF RHO KINASE” (priority 2006, published 2008).
Like-named read-outs stand apart in the source and are kept apart here.

Biological target: T1, recombinant N-terminal GST-tagged human Rho kinase 2 (ROCK2, amino acids 1-552) (Homo sapiens, UniProt O75116)
T1 construct: ROCK2, amino acids 1-552; purchased Invitrogen Inc. PV3759
Test: In vitro Rho kinase assay (luciferase-based ATP consumption), ROCK2
Format: biochemical
Experimental: In Vitro Rho Kinase Assay
Rho kinase biochemical assays described below depend on firefly luciferase-based, indirect measurement of total ATP consumption by the kinase following incubation with substrate and ATP. 25 μl of Rho kinase assay buffer (20 mM Tris-HCL [pH 7.5], 1 mM MgCl2, 0.4 mM CaCl2, 0.15 mM EGTA, 0.1 mg/ml bovine serum albumin) containing 0.82 μg/ml of recombinant N-terminal GST-tagged human Rho kinase 1 (ROCK1, amino acids 1-535, Invitrogen Inc., cat. #PV-3691) or recombinant N-terminal GST-tagged human Rho kinase 2 (ROCK2, amino acids 1-552, Invitrogen Inc., cat #PV3759), 100 μg/ml S6 peptide substrate (related to amino acids 218-249 of the human 40S ribosomal protein S6, and suitable for ROCK1 or ROCK2, e.g. Upstate/Millipore Inc., cat #12-420), and 3 µM ATP are dispensed to wells of a 384 multi-well opaque plate. The plate is centrifuged for 30 seconds at approximately 200×g. 240 nl of test compound in DMSO is dispensed to each well by passive pin transfer. The lag phase of this in vitro kinase reaction permits addition of compounds soon after the reaction initiates. The reaction is allowed to incubate at 30° C. for 2 hours. The assay plates are sealed and maintained in a humidified environment. After 2 hours, 25 μl of easylite protein kinase assay reagent (Perkin-Elmer, Inc.) is dispensed. After an additional 10 minute incubation at room temperature (about 22° C.), luminescence activity is measured on a Molecular Devices Analyst multi-mode plate reader or other suitable plate reader. Kinase inhibition results in less ATP consumption, and therefore increased luminescence signal. Negative control activity is measured with DMSO lacking any test compound. The positive control is 2-methyl-1-(4-methylisoquinolin-5-ylsulfonyl)perhydro-1,4-diazepine hydrochloride (aka H-1152P, HCl salt). Efficacy is measured as a percentage of positive control activity. […] In some cases, kinase reactions and compound testing are performed in 1536 multi-well plates under similar conditions, with assay volumes appropriately scaled. The designation NT means the cited example was not tested.

[1] = recombinant GST-tagged human ROCK2, luciferase-based ATP consumption, read-out: ROCK2 IC50

T1 sequence (O75116 1-552): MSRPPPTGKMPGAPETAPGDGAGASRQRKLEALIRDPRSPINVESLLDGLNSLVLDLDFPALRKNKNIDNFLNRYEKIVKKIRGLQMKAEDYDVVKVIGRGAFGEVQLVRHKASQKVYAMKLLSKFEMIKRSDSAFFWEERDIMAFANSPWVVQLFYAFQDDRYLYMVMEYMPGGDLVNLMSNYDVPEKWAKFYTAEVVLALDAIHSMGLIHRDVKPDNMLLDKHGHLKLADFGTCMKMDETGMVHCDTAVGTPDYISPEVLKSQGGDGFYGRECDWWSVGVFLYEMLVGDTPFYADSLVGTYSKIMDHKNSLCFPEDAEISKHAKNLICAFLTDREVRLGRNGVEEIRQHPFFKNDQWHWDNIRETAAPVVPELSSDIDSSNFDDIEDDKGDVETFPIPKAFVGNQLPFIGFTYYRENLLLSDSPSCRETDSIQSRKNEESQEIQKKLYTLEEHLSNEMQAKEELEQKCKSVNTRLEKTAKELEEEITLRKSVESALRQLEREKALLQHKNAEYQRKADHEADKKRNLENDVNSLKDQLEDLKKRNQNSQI

| Compound | IC50 [1] | IC50 (ROCK2 IC50, recombinant GST-tagged human ROCK2, luciferase-based ATP consumption) |
| --- | --- | --- |
| Cc1c(-c2ccnc(N)n2)sc2ccc(C(=O)N3CCCC(CO)C3)cc12 (stereo not shown) [Example 486, Cc1c(sc2ccc(cc12)C(═O)N3CCCC(CO)C3)-c4ccnc(N)n4] | < 5 µM |  |
| Cc1c(-c2ccnc(N)n2)sc2ccc(C(=O)N3CCCC(C(N)=O)C3)cc12 (stereo not shown) [Example 496, Cc1c(sc2ccc(cc12)C(═O)N3CCCC(C3)C(N)═O)-c4ccnc(N)n4] | < 5 µM |  |
| CCN(CC)CCN(Cc1ccccc1)C(=O)c1ccc2sc(-c3ccnc(N)n3)c(C)c2c1 [Example 551, CCN(CC)CCN(Cc1ccccc1)C(═O)c2ccc3sc(c(C)c3c2)-c4ccnc(N)n4] | < 5 µM |  |
| COCC(C)NC(=O)c1ccc2sc(-c3ccnc(N)n3)c(C)c2c1 (stereo not shown) [Example 352, COCC(C)NC(═O)c1ccc2sc(c(C)c2c1)-c3ccnc(N)n3] | > 5 µM |  |
| Cc1c(-c2ccnc(N)n2)sc2ccc(C(=O)NC(C)CCCC(C)C)cc12 (stereo not shown) [Example 388, CC(C)CCCC(C)NC(═O)c1ccc2sc(c(C)c2c1)-c3ccnc(N)n3] | > 5 µM |  |
| Cc1c(-c2ccnc(N)n2)sc2ccc(C(=O)NCc3cc(F)cc(F)c3)cc12 [Example 414, Cc1c(sc2ccc(cc12)C(═O)NCc3cc(F)cc(F)c3)-c4ccnc(N)n4] | < 5 µM |  |
| Cc1c(-c2ccnc(N)n2)sc2ccc(C(=O)N3CCN(c4ccc(F)cc4)CC3)cc12 [Example 526, Cc1c(sc2ccc(cc12)C(═O)N3CCN(CC3)c4ccc(F)cc4)-c5ccnc(N)n5] | < 5 µM |  |
| COc1ccc(N2CCN(C(=O)c3ccc4sc(-c5ccnc(N)n5)c(C)c4c3)CC2)cc1 [Example 540, COc1ccc(cc1)N2CCN(CC2)C(═O)c3ccc4sc(c(C)c4c3)-c5ccnc(N)n5] | < 5 µM |  |
| Cc1c(-c2ccnc(N)n2)sc2ccc(C(=O)N3CCN(C(=O)OC(C)(C)C)C[C@H]3CO)cc12 [Example 561, Cc1c(sc2ccc(cc12)C(═O)N3CCN(C[C@H]3CO)C(═O)OC(C)(C)C)-c4ccnc(N)n4] | > 5 µM |  |
| CCOC(=O)C1CCN(C(=O)c2ccc3sc(-c4ccnc(N)n4)c(C)c3c2)CC1 [Example 509, CCOC(═O)C1CCN(CC1)C(═O)c2ccc3sc(c(C)c3c2)-c4ccnc(N)n4] | > 5 µM |  |
| Cc1c(-c2ccnc(N)n2)sc2ccc(C(=O)NCc3ccc(Cl)cc3Cl)cc12 [Example 447, Cc1c(sc2ccc(cc12)C(═O)NCc3ccc(Cl)cc3Cl)-c4ccnc(N)n4] |  | > 5 µM |
| Cc1c(-c2ccnc(N)n2)sc2ccc(C(=O)N(C)CCc3ccccn3)cc12 [Example 501, CN(CCc1ccccn1)C(═O)c2ccc3sc(c(C)c3c2)-c4ccnc(N)n4] | > 5 µM |  |
| Cc1c(-c2ccnc(N)n2)sc2ccc(C(=O)NCCN3CCOCC3)cc12 [Example 389, Cc1c(sc2ccc(cc12)C(═O)NCCN3CCOCC3)-c4ccnc(N)n4] | < 5 µM |  |
| Cc1c(-c2ccnc(N)n2)sc2ccc(C(=O)N3CCN(C)CC3)cc12 [Example 474, CN1CCN(CC1)C(═O)c2ccc3sc(c(C)c3c2)-c4ccnc(N)n4] | < 5 µM |  |
| Cc1c(-c2ccnc(N)n2)sc2ccc(C(=O)N3CCC(N(C)C(=O)OC(C)(C)C)C3)cc12 (stereo not shown) [Example 549, CN(C1CCN(C1)C(═O)c2ccc3sc(c(C)c3c2)-c4ccnc(N)n4)C(═O)OC(C)(C)C] | > 5 µM |  |
| Cc1c(-c2ccnc(N)n2)sc2ccc(C(=O)NCc3ccc(F)cc3F)cc12 [Example 412, Cc1c(sc2ccc(cc12)C(═O)NCc3ccc(F)cc3F)-c4ccnc(N)n4] | < 5 µM |  |
| COc1ccccc1CNC(=O)c1ccc2sc(-c3ccnc(N)n3)c(C)c2c1 [Example 402, COc1ccccc1CNC(═O)c2ccc3sc(c(C)c3c2)-c4ccnc(N)n4] | < 5 µM |  |
| Cc1c(-c2ccnc(N)n2)sc2ccc(C(=O)N(C)CCc3ccccc3)cc12 [Example 500, CN(CCc1ccccc1)C(═O)c2ccc3sc(c(C)c3c2)-c4ccnc(N)n4] | < 5 µM |  |
| COc1cc2c(cc1OC)CN(C(=O)c1ccc3sc(-c4ccnc(N)n4)c(C)c3c1)CC2 [Example 564, COc1cc2CCN(Cc2cc1OC)C(═O)c3ccc4sc(c(C)c4c3)-c5ccnc(N)n5] | < 5 µM |  |
| Cc1c(-c2ccnc(N)n2)sc2ccc(C(=O)N(C)CCC#N)cc12 [Example 465, CN(CCC#N)C(═O)c1ccc2sc(c(C)c2c1)-c3ccnc(N)n3] | < 5 µM |  |
| Cc1c(-c2ccnc(N)n2)sc2ccc(C(=O)NC3CC3)cc12 [Example 333, Cc1c(sc2ccc(cc12)C(═O)NC3CC3)-c4ccnc(N)n4] | < 5 µM |  |

The next lines start with results.

| IC50 [1] | Compound | IC50 (ROCK2 IC50, recombinant GST-tagged human ROCK2, luciferase-based ATP consumption) |
| --- | --- | --- |
| < 5 µM | Cc1c(-c2ccnc(N)n2)sc2ccc(C(=O)N3CCN(c4ccc(C#N)cn4)CC3)cc12 [Example 533, Cc1c(sc2ccc(cc12)C(═O)N3CCN(CC3)c4ccc(cn4)C#N)-c5ccnc(N)n5] |  |
| > 5 µM | Cc1c(-c2ccnc(N)n2)sc2ccc(C(=O)NC3CCCCCC3)cc12 [Example 370, Cc1c(sc2ccc(cc12)C(═O)NC3CCCCCC3)-c4ccnc(N)n4] |  |
| < 5 µM | CCC(CO)NC(=O)c1ccc2sc(-c3ccnc(N)n3)c(C)c2c1 (stereo not shown) [Example 353, CCC(CO)NC(═O)c1ccc2sc(c(C)c2c1)-c3ccnc(N)n3] |  |
| < 5 µM | Cc1c(-c2ccnc(N)n2)sc2ccc(C(=O)NCCCO)cc12 [Example 343, Cc1c(sc2ccc(cc12)C(═O)NCCCO)-c3ccnc(N)n3] |  |
| < 5 µM | CCN(C(=O)c1ccc2sc(-c3ccnc(N)n3)c(C)c2c1)C(C)C [Example 468, CCN(C(C)C)C(═O)c1ccc2sc(c(C)c2c1)-c3ccnc(N)n3] |  |
| < 5 µM | Cc1c(-c2ccnc(N)n2)sc2ccc(C(=O)NCc3ccc(F)cc3)cc12 [Example 383, Cc1c(sc2ccc(cc12)C(═O)NCc3ccc(F)cc3)-c4ccnc(N)n4] |  |
| > 5 µM | Cc1c(-c2ccnc(N)n2)sc2ccc(C(=O)NCc3ccc(C(F)(F)F)cc3)cc12 [Example 444, Cc1c(sc2ccc(cc12)C(═O)NCc3ccc(cc3)C(F)(F)F)-c4ccnc(N)n4] |  |
| < 5 µM | Cc1c(-c2ccnc(N)n2)sc2ccc(C(=O)N[C@H](C)c3ccccc3)cc12 [Example 377, C[C@@H](NC(═O)c1ccc2sc(c(C)c2c1)-c3ccnc(N)n3)c4ccccc4] |  |
| < 5 µM | Cc1c(-c2ccnc(N)n2)sc2ccc(C(=O)NC3CCC3)cc12 [Example 339, Cc1c(sc2ccc(cc12)C(═O)NC3CCC3)-c4ccnc(N)n4] |  |
| < 5 µM | Cc1c(-c2ccnc(N)n2)sc2ccc(C(=O)N(CCO)Cc3ccccc3)cc12 [Example 506, Cc1c(sc2ccc(cc12)C(═O)N(CCO)Cc3ccccc3)-c4ccnc(N)n4] |  |
| < 5 µM | Cc1c(-c2ccnc(N)n2)sc2ccc(C(=O)N3CCN(c4ccccc4)CC3)cc12 [Example 513, Cc1c(sc2ccc(cc12)C(═O)N3CCN(CC3)c4ccccc4)-c5ccnc(N)n5] |  |
| < 5 µM | Cc1c(-c2ccnc(N)n2)sc2ccc(C(=O)NC3CONC3=O)cc12 (stereo not shown) [Example 360, Cc1c(sc2ccc(cc12)C(═O)NC3CONC3═O)-c4ccnc(N)n4] |  |
| < 5 µM | Cc1c(-c2ccnc(N)n2)sc2ccc(C(=O)NCC3CCCCC3)cc12 [Example 369, Cc1c(sc2ccc(cc12)C(═O)NCC3CCCCC3)-c4ccnc(N)n4] |  |
| < 5 µM | Cc1c(-c2ccnc(N)n2)sc2ccc(C(=O)N3CCCN(Cc4ccccc4)CC3)cc12 [Example 522, Cc1c(sc2ccc(cc12)C(═O)N3CCCN(CC3)Cc4ccccc4)-c5ccnc(N)n5] |  |
| < 5 µM | Cc1c(-c2ccnc(N)n2)sc2ccc(C(=O)NCCC(C)C)cc12 [Example 350, CC(C)CCNC(═O)c1ccc2sc(c(C)c2c1)-c3ccnc(N)n3] |  |
| < 5 µM | Cc1c(-c2ccnc(N)n2)sc2ccc(C(=O)NCCc3cccc(F)c3)cc12 [Example 407, Cc1c(sc2ccc(cc12)C(═O)NCCc3cccc(F)c3)-c4ccnc(N)n4] |  |
